Source: patent publication US5110976A, “Insecticidal composition comprising more than one active ingredient” (priority 1985, dated 1992)
Values after ≈ are worked out from the molar mass of the structure shown.

Legend:
[1] = tested on: Phaedon cochleariae; conditions: mixture activity lower than the calculated value; cited from earlier work
[2] = tested on: Musca domestica; conditions: mixture activity lower than the calculated value; cited from earlier work
[3] = tested on: Hyphantria cunea; assay: Topical test on fall webworm (Table 18); format: in vivo, fall wetworm (Hyphantria cunea), L7-L8 larvae
Experimental: The active ingredients are dissolved in 2-ethoxy-ethanol and the solutions are applied in the form of 0.2 μl droplets onto the back of fall wetworm (Hyphantria cunea) of L7 -L8 larvae stage. The treated worms are placed on strawberry leaves in Petri-dishes. The test is carried out by using […], 2 parallels and 10 insects for each dose. The killed worms are counted after 24 hours and the percental mortality rate is calculated.

[4] = tested on: Colorado potato beetle; assay: Topical test on Colorado potato beetle (Table 14); format: in vivo, Colorado potato beetle (Leptinotersa decemlineata), imago
Experimental: In Table 14 the activity on Colorado potato beetle is shown.
The test materials are dissolved in 2-ethoxyethanol (Cellosolve). One 0.3 μl drop of the solution is applied to the abdominal sterna of the imago. The treatment is carried out by using 2 parallels and 10 insects for each dose. […]

[5] = tested on: L. decemlineata; assay: 5 EC formulation sprayed on glass plates (Table 9); format: in vivo, Colorado beetle (L. decemlineata), imagos; conditions: 48 hours
Experimental: (§1) From a 5 EC formulation according to Example 17 50-, 100-, 200-, 400-, 800- and 1600-fold diluted emulsions are prepared by diluting with water. 0.5 ml of the emulsions are sprayed onto glass plates whereupon after drying 10 Colorado beetles (L. decemlineata) imagos are placed on each glass plate and the insects are covered. The tests are carried out with 6 doses by carrying out 3 parallels for each dose. The killed insects are counted after 48 hours and the percental mortality rate is calculated.

[6] = tested on: Leptinotarsa decemlineata; assay: Topical test on potato beetle (Table 6); format: in vivo, imagos; conditions: 24 h
Experimental: The active ingredients are dissolved in 2-ethoxyethanol and […] of the solutions are applied onto the abdominal sterna of potato beetle (Leptinotarsa decemlineata) imagos. The treatments are carried out by using two parallels and 10 insects for each dose. […]

[7] = tested on: Hyphantria cunea; assay: Topical test on fall webworm (Table 8); format: in vivo, L7-L8 larvae; conditions: 24 h
Experimental: The active ingredients are dissolved in 2-ethoxyethanol and the solutions are applied in the form of 0.2 μl droplets onto the back of fall webworm (Hyphantria cunea) of L7 -L8 larvae stage. The treated worms are placed on strawberry leaves in Petri-dishes. The test is carried out by using 5 doses; 2 parallels and 10 insects for each dose.

[8] = tested on: Acanthoscelides obtectus; assay: 5 EC formulation, insecticidal effect on bean weevil (Table 10); format: in vivo, bean weevil (Acanthoscelides obtectus), imagos; conditions: 24 hours
Experimental: as §1
The insecticidal effect is tested on been weevil (Acanthoscelides obtectus) imagos. The killed insects are counted after 24 hours and the percental mortality rate is calculated.

[9] = tested on: Tetranychus urticae; assay: Potter Tower spray on mite-infested leaves (Table 19); format: in vivo, mites (Tetranychus urticae); conditions: mortality after 24 hours
Experimental: Leaves already infested with mites (Tetranychus urticae) were sprayed under Potter Tower. Mortality after 24 hours on the treated leaves was compared with the control.

[10] = tested on: L. decemlineata; assay: 5 EC formulations sprayed on glass plates (Table 20); format: in vivo, imagos; conditions: 5 EC formulation, 48 hours
Experimental: (§2) The 5 EC formulations prepared according to Example 42 are diluted 50x, 100x, 200x, 400x, 800x and 1600x with water and 0.5 ml doses are sprayed onto glass plates. After drying 10 L. decemlineata imagos are placed on each glass plate and the insects are covered with Petri-dishes. The tests are carried out by using 6 doses and 3 parallels for each dose. The killed insects are counted after 48 hours.

[11] = tested on: Acanthoscelides obtectus; assay: 5 EC formulations sprayed on glass plates (Table 21); format: in vivo, bean weevil (Acanthoscelides obtectus), imagos; conditions: 5 EC formulation, 24 hours
Experimental: as §2
Glass plates are sprayed with 5 EC formulations prepared according to Example 42 in an analogous manner to Example 52. After drying 10 bean weevil (Acanthoscelides obtectus) imagos are placed on each plate and the insects are covered with Petri-dishes. The killed insects are counted after 24 hours. The test is carried out with 6 doses by using 3 parallels for each dose.

[12] = tested on: Aphidinus matricariae; assay: Residual contact test on adults (Table 25); format: in vivo, adult females
Experimental: Residual contact test on adults of Aphidinus matricariae. Adults of A. matricariae are exposed to residues of the active ingredients freshly applied on glass plates forming cages, then the survivors are counted.
Treatment: test product and control treated with water.
Replicates: at least 3. Plot size (net): 1 cage.
Parasites of known age (24 hours) are used. […]
10 females of A. matricariae are introduced into each cage and supplied with honey as food. The number of females surviving exposure is determined after 1, 5 and 24 hours, in independent runs. Total number of survivors is calculate for each cage.

[13] = tested on: Colorado potato beetle; assay: Plot field test on Colorado potato beetle (Table 24); format: in vivo, adults; conditions: 10 g active ingredients/ha
Experimental: The treatments are performed on a 25 m^2 plot strongly infected with Colorado potato beetle. 10 plants per plot are specially marked on which the Colorado potato beetles were counted previously. (During assessment of the number of pests only adults of the second Summer generation are taken into consideration, because at the point of time of the test the ratio of larvae of stages L3 and L4 is negligible). Treatment is accomplished on 25 M^2 plots at a dose of 10 g of active ingredients/ha with aqueous suspensions of the formulations according to Example 37 and three parallels are used. The test is evaluated by counting the leave insects on the marked plants. The average values of three parallel tests are disclosed in Table 24.

[14] = tested on: Myzus persicae; assay: 5 EC formulations on aphid-infected bean plants (Table 22); format: in vivo, green peach aphids (Myzus persicae)
Experimental: 15 bean plants infected with green peach aphids (Myzus persicae) at 6 days' age are cultivated in each pot. At 12 days' age the strongly and uniformly infected plants are selected and sprayed to run-off with emulsions freshly prepared from the formulation according to Example 42. Treatments are carried out with three doses (active ingredient 2.5, 5 and 10 ppm) and four parallels are used (one pot per parallel). The second, fourth and eighth day after treatment the aphids are swept down from the plants to a white paper with a fine brush and the live insects are counted.

[15] = tested on: A. matricariae; assay: Direct contact test on pupae (Table 26); format: in vivo
Experimental: Mature pupae of A. matricariae on paprika leaves in Petri-dishes are exposed to a direct spray of the active ingredients. Two or three days before emergence paprika leaves with parasitized pupae are used. The leaves are laid on moistened filter paper in a plastic Petri-dish.
Application of treatment: See Example 57.
The pieces of leaf are transferred after treatment to clean Petri-dish bottoms. The trays are stored in a climatic chamber at 20° C. temperature, 70% relative humidity and a light-dark cycle of 16-8 h. Surviving pupae hatch after 2-3 days. The numbers of hatched and dead pupae are counted.

[16] = tested on: A. matricariae; assay: Direct contact test of pupae (Table 5); format: in vivo
Experimental: Mature pupae of A. matricariae on paprika leaves in Petri dishes are exposed to a direct spray of the active ingredients.
Two or three days before emergence paprika leaves with parasitized pupae are used. The leaves are laid on filter paper in a plastic Petri dish The filter paper is moistened.
Application of treatment: See Example 23.
The pieces of leaf are transferred after treatment to clean Petri dish bottoms The trays are stored in a clinic chamber at 20° C. temperature, 70% relative humidity and a light-dark cycle of […]. Surviving pupae hatch after 2-3 days. The numbers of hatched and dead pupae are counted.

## CC1(C)[C@H](C=C(Cl)Cl)[C@H]1C(=O)OC(C#N)c1cccc(Oc2ccccc2)c1 (mixture of isomers) [mixture of both tested isomers]
[1]
  rate of antagonism: 1.46
[2]
  rate of antagonism: 1.42

## CC1(C)C(C=C(Cl)Cl)C1C(=O)OC(C#N)c1cccc(Oc2ccccc2)c1 (stereo not drawn) [cypermethrin]
[3]; 0.023 (μg/disc), 1440 min
  24 hours' mortality: 0%
[3]; 0.047 (μg/disc), 1440 min
  24 hours' mortality: 10%
[3]; 0.094 (μg/disc), 1440 min
  24 hours' mortality: 25%
[3]; 0.188 (μg/disc), 1440 min
  24 hours' mortality: 50%
[3]; 0.375 (μg/disc)
  24 hours' mortality: 75%
[4]; 0.05 μg/beetle
  24 hours' mortality %: 0%
[4]; 0.10 μg/beetle
  24 hours' mortality %: 20%
[4]; 0.20 μg/beetle
  24 hours' mortality %: 45%
[4]; 0.40 μg/beetle
  24 hours' mortality %: 75%
[5]; dilution 50x
  Mortality %: 83%
[5]; dilution 100x
  Mortality %: 67%
[5]; dilution 200x
  Mortality %: 50%
[5]; dilution 400x
  Mortality %: 33%
[5]; dilution 800x
  Mortality %: 17%
[5]; dilution 1600x
  Mortality %: 0%
[6]; 0.05 μg/insect
  mortality at 0.05 µg/insect: 0%
[6]; 0.10 μg/insect
  mortality at 0.1 µg/insect: 20%
[6]; 0.20 μg/insect
  mortality at 0.2 µg/insect: 45%
[6]; 0.40 μg/insect
  mortality at 0.4 µg/insect: 75%
[7]; 0.023 μg/larvae
  mortality at 0.023 µg/larva: 0%
[7]; 0.047 μg/larvae
  mortality at 0.047 µg/larva: 0%
[7]; 0.094 μg/larvae
  mortality at 0.094 µg/larva: 25%
[7]; 0.188 μg/larvae
  mortality at 0.188 µg/larva: 50%
[7]; 0.375 μg/larvae
  mortality at 0.375 µg/larva: 75%
[8]; dilution 50x
  Mortality %: 60%
[8]; dilution 100x
  Mortality %: 43%
[8]; dilution 200x
  Mortality %: 20%
[8]; dilution 400x
  Mortality %: 10%
[8]; dilution 800x
  Mortality %: 3%
[8]; dilution 1600x
  Mortality %: 0%
[9]; 1440 min
  approx. LD50: ~0.120 ppm
[10]; dilution 50x, 2880 min
  Mortality %: 83%
[10]; dilution 100x, 2880 min
  Mortality %: 67%
[10]; dilution 200x, 2880 min
  Mortality %: 50%
[10]; dilution 400x, 2880 min
  Mortality %: 33%
[10]; dilution 800x, 2880 min
  Mortality %: 17%
[10]; dilution 1600x
  Mortality %: 0%
[11]; dilution 50x, 1440 min
  Mortality %: 60%
[11]; dilution 100x, 1440 min
  Mortality %: 45%
[11]; dilution 200x, 1440 min
  Mortality %: 20%
[11]; dilution 400x, 1440 min
  Mortality %: 10%
[11]; dilution 800x, 1440 min
  Mortality %: 3%
[11]; dilution 1600x, 1440 min
  Mortality %: 0%

## CC1(C)[C@H](C(=O)O[C@H](C#N)c2cccc(Oc3ccccc3)c2)[C@@H]1C=C(Br)Br [deltamethrin]
[12]; 1 ppm, 1h
  Mortality %: 20%
[12]; 1 ppm, 5h
  Mortality %: 100%
[12]; 1 ppm, 24h
  Mortality %: 85%
[12]; 5 ppm, 1h
  Mortality %: 100%
[13]; 0 days after treatment (control 211)
  Average number of live insects/10 plants: 181
[13]; 1 day after treatment (control 206)
  Average number of live insects/10 plants: 7
[13]; 3 days after treatment (control 179)
  Average number of live insects/10 plants: 10
[13]; 9 days after treatment (control 183)
  Average number of live insects/10 plants: 19
[14]; 2.5 ppm, 2 days after treatment (control 1850)
  Average number of aphids per pot: 26
[14]; 2.5 ppm, 4 days after treatment (control 2780)
  Average number of aphids per pot: 47
[14]; 2.5 ppm, 8 days after treatment (control 4120)
  Average number of aphids per pot: 137
[14]; 5.0 ppm, 2 days after treatment (control 1850)
  Average number of aphids per pot: 13
[14]; 5.0 ppm, 4 days after treatment (control 2780)
  Average number of aphids per pot: 19
[14]; 5.0 ppm, 8 days after treatment (control 4120)
  Average number of aphids per pot: 29
[14]; 10.0 ppm, 2 days after treatment (control 1850)
  Average number of aphids per pot: 6
[14]; 10.0 ppm, 4 days after treatment (control 2780)
  Average number of aphids per pot: 11
[14]; 10.0 ppm, 8 days after treatment (control 4120)
  Average number of aphids per pot: 23
[4]; Leptinotarsa decemlineata, topical, read-out: 24 hours' mortality %, 0.05 μg/beetle
  mortality at 0.05 µg/beetle: 45%
[4]; Leptinotarsa decemlineata, topical, read-out: 24 hours' mortality %, 0.10 μg/beetle
  mortality at 0.1 µg/beetle: 60%
[4]; Leptinotarsa decemlineata, topical, read-out: 24 hours' mortality %, 0.20 μg/beetle
  mortality at 0.2 µg/beetle: 75%
[4]; Leptinotarsa decemlineata, topical, read-out: 24 hours' mortality %, 0.40 μg/beetle
  mortality at 0.4 µg/beetle: 85%
[15]; 1 ppm
  Mortality %: 0%
[15]; 5 ppm
  Mortality %: 0%
[15]; 10 ppm
  Mortality %: 33.0%
[15]; 33 ppm
  Mortality %: 75.0%
[9]; Tetranychus urticae, 24 h, read-out: approx. LD50
  LC50: ~0.185 µg/mL (≈ 0.366 µM)
[16]; 1 ppm
  Mortality %: 0%
[16]; 5 ppm
  Mortality %: 0%
[16]; 10 ppm
  Mortality %: 33.0%
[16]; 30 ppm
  Mortality %: 75.0%
[10]; dilution 50x
  Mortality %: 100%
[10]; dilution 100x
  Mortality %: 83%
[10]; dilution 200x
  Mortality %: 67%
[10]; dilution 400x
  Mortality %: 53%
[10]; dilution 800x
  Mortality %: 35%
[10]; dilution 1600x
  Mortality %: 7%
[11]; dilution 50x
  Mortality %: 75%
[11]; dilution 100x
  Mortality %: 57%
[11]; dilution 200x
  Mortality %: 37%
[11]; dilution 400x
  Mortality %: 20%
[11]; dilution 800x
  Mortality %: 13%
[11]; dilution 1600x
  Mortality %: 7%
